These results are taken from patent publication US7723325B2, “5-amido-indole-2-carboxamide derivatives” (Hoffman-La Roche Inc., priority 2006, dated 2010).

In this test the target is T1, histamine 3 receptor (H3R) (Homo sapiens, UniProt Q9Y5N1).
T1 construct: expressed in transfected cells; host or cells: CHO
T1 sequence (Q9Y5N1 whole entry): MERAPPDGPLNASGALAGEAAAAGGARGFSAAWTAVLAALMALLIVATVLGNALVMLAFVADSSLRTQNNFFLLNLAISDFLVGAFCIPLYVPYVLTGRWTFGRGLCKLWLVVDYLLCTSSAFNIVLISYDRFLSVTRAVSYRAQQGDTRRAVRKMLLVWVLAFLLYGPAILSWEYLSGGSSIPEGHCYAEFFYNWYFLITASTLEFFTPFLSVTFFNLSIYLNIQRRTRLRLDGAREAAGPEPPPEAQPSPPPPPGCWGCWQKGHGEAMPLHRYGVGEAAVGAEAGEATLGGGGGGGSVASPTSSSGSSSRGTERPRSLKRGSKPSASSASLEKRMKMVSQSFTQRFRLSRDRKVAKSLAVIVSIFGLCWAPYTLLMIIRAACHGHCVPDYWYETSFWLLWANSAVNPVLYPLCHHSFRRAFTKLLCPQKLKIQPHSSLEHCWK
The test can be described thus: Binding assay with 3H-(R)α-Methylhistamine (competition binding, HR3-CHO membranes). To be noted: competition binding vs 3H(R)α-Methylhistamine (1 nM), membrane of the human HR3-CHO cell line; Ki calculated from IC50 (Cheng-Prusoff). How it is done: Binding Assay with ^3H—(R)α-Methylhistamine
Saturation binding experiments were performed using HR3-CHO membranes prepared as described in Takahashi, K, Tokita, S., Kotani, H. (2003) J. Pharmacol. Exp. Therapeutics 307, 213-218.
An appropriate amount of membrane (60 to 80 μg protein/well) was incubated with increasing concentrations of ^3H(R)α-Methylhistamine di-hydrochloride (0.10 to 10 nM). Non specific binding was determined using a 200 fold excess of cold (R)α-Methylhistamine dihydrobromide (500 nM final concentration). The incubation was carried out at room temperature (in deep-well plates shaking for three hours). The final volume in each well was 250 μl. The incubation was followed by rapid filtration on GF/B filters (pre-soaked with 100 μl of 0.5% PEI in Tris 50 mM shaking at 200 rpm for two hours). The filtration was made using a cell-harvester and the filter plates were then washed five times with ice cold washing buffer containing 0.5 M NaCl. After harvesting, the plates were dried at 55° C. for 60 min, then we added scintillation fluid (Microscint 40, 40 microl in each well) and the amount of radioactivity on the filter was determined in Packard top-counter after shaking the plates for two hours at 200 rpm at room temperature.
Binding Buffer: 50 mM Tris-HCl pH 7.4 and 5 mM MgCl2x6H2O pH 7.4. Washing Buffer: 50 mM Tris-HCl pH 7.4 and 5 mM MgCl2x6H2O and 0.5 M NaCl pH 7.4.
Indirect measurement of affinity of H3R inverse agonists: twelve increasing concentrations (ranging from 10 μM to 0.3 nM) of the selected compounds were always tested in competition binding experiments using membrane of the human HR3-CHO cell line. An appropriate amount of protein, e.g. approximately 500 cpm binding of RAMH at Kd, were incubated for 1 hour at room temperature in 250 μl final volume in 96-well plates in presence of ^3H(R)α-Methylhistamine (1 nM final concentration=Kd). Non-specific binding was determined using a 200 fold excess of cold (R)α-Methylhistamine dihydrobromide.
All compounds were tested at a single concentration in duplicates. […] Ki's were calculated from IC50 based on Cheng-Prusoff equation (Cheng, Y, Prusoff, W H (1973) Biochem Pharmacol 22, 3099-3108).
One may read the Ki as a measure of affinity in units of concentration, obtained from inhibition or displacement. In the case of `O=C(c1ccc2[nH]c(C(=O)N3CCCCC3)cc2c1)N1CCN(C2CCCC2)CC1` [Example 5, [5-(4-Cyclopentyl-piperazine-1-carbonyl)-1H-indol-2-yl]-piperidin-1-yl-methanone], the inhibition constant Ki was 28.7 nM. As for `COc1cccc(-n2c(C(=O)N3CCC(F)(F)CC3)cc3cc(C(=O)N4CCN(C5CCCC5)CC4)ccc32)c1` [Example 84, [5-(4-Cyclopentyl-piperazine-1-carbonyl)-1-(3-methoxy-phenyl)-1H-indol-2-yl]-(4,4-difluoro-piperidin-1-yl)-methanone], the Ki is 35.6 nM. The result for `CC(C)N1CCN(C(=O)c2ccc3c(c2)cc(C(=O)N2CCS(=O)(=O)CC2)n3-c2cccc(Cl)c2)CC1` [Example 97, [1-(3-Chloro-phenyl)-5-(4-isopropyl-piperazine-1-carbonyl)-1H-indol-2-yl]-(1,1-dioxo-thiomorpholin-4-yl)-methanone] reads 13.4 nM. The result for `CC(C)N1CCN(C(=O)c2ccc3c(c2)cc(C(=O)N2CCC(F)(F)CC2)n3C2CCC2)CC1` [Example 150, [1-Cyclobutyl-2-(4,4-difluoro-piperidine-1-carbonyl)-1H-indol-5-yl]-(4-isopropyl-piperazin-1-yl)-methanone] reads 25.2 nM; that for `CC(C)N1CCN(C(=O)c2ccc3c(c2)cc(C(=O)N2CCS(=O)(=O)CC2)n3-c2ccc(S(C)(=O)=O)cc2)CC1` [Example 221, (1,1-Dioxothiomorpholin-4-yl)-[5-(4-isopropyl-piperazine-1-carbonyl)-1-(4-methanesulfonyl-phenyl)-1H-indol-2-yl]-methanone], 22.6 nM.

With `CC(C)N1CCCN(C(=O)c2ccc3[nH]c(C(=O)N4CCS(=O)(=O)CC4)cc3c2)CC1` [Example 245, (1,1-Dioxo-thiomorpholin-4-yl)-[5-(4-isopropyl-[1,4]diazepane-1-carbonyl)-1H-indol-2-yl]-methanone], the Ki is 41 nM.
